This note sets out measurements from ChEMBL document CHEMBL5528071, “Discovery of Novel Steroid-Based Histamine H3 Receptor Antagonists/Inverse Agonists” (J Med Chem, 2024).

The target in series [1] is T1, Histamine H3 receptor (Homo sapiens, UniProt Q9Y5N1).
Description: Displacement of N-alpha-[methyl-3H]methylhistamine dihydrochloride from human Histamine H3 receptor expressed in CHO-K1 cell membrane assessed as inhibition constant incubated for 30 mins by liquid scintillation analyzer
The species named for series [2] is Rattus norvegicus. In words: Displacement of [3H]quinuclidinyl benzilate from Wistar rat cerebral cortex membrane muscarinic AChR at 1 uM by liquid scintillation counter relative to control. It counts as cell membranes. Background: Displacement assays read how much labelled ligand stays bound in the presence of the test substance.
Series [3] has as its target T2, hERG (KCNH2) (Homo sapiens, UniProt Q12809). In words: Inhibition of human ERG expressed in CHO cells at 1 uM incubated for 7 to 10 mins by automated whole-cell patch clamp recordings relative to control. As to conditions: CHO cells expressing human ERG.
Series [4] deals with Histamine H3 receptor (Rattus norvegicus, UniProt Q9QYN8).
Description: Displacement of N-alpha-[methyl-3H]-methylhistamine dihydrochloride from Sprague-Dawley rat cerebral cortex membrane Histamine H3 receptor assessed as inhibition constant incubated for 30 mins by scintillation counter
The target of series [5] is T2, hERG (KCNH2). In words: Inhibition of human ERG expressed in CHO cells at 3 uM incubated for 7 to 10 mins by automated whole-cell patch clamp recordings relative to control. As to conditions: CHO cells expressing human ERG. In general terms: In patch-clamp work, channel activity is measured electrically.
Series [6] can be described thus: Displacement of [3H]quinuclidinyl benzilate from Wistar rat cerebral cortex membrane muscarinic AChR assessed as inhibition constant by liquid scintillation counter.
Series [7] in a line: In vivo antagonist activity at Histamine H3 receptor in Wistar rat assessed as reduction in imetit-induced water intake pretreated with compound for 30 mins followed by imetit administration and measured after 30 mins by dipsogenia test. It counts as functional. The following applies: 1 h, time 60 min.
Series [8] deals with Voltage-gated inwardly rectifying potassium channel KCNH2 (Homo sapiens, UniProt Q12809). In words: Inhibition of human ERG expressed in CHO cells incubated for 7 to 10 mins by automated whole-cell patch clamp recordings. It is filed as toxicity, cell-based.
The test system of series [9] is Mus musculus. In words: Cognitive enhancing effect in scopolamine-induced NMRI mouse model assessed as reversal of exploration time by measuring minimum effective dose preadministered orally for 30 mins followed by scopolamine administration by place recognition test. It is filed as functional. The following applies: 0.5 h, route po, read-out: MED.
Series [10] is described as follows: Ratio of drug concentration in Hannover Wistar rat brain to plasma administered orally for 2 days and measured 1 hrs post last dose by HPLC-MS/MS analysis. It counts as ADME. As to conditions: route po, read-out: BPR.
For series [11], the system named is Rattus norvegicus. Description: Cognitive enhancing effect in Hannover Wistar rat model of delay-induced natural forgetting assessed as reversal of exploration time by measuring minimal effective dose orally administered for 30 mins by novel object recognition test. As to conditions: 0.5 h, route po, read-out: MED. It counts as functional.
The nature of series [12]: Bioavailability in Wistar rat at 10 mg/kg, po or 3 mg/kg, iv measured after 24 hrs by HPLC-MS/MS analysis. It counts as ADME, organism-based. As to conditions: in vivo.
In series [13] the target is T1, Histamine H3 receptor. Description: Antagonist activity at human Histamine H3 receptor.

Bounds are passed on as bounds.

Sequence of Voltage-gated inwardly rectifying potassium channel KCNH2 (Q12809 whole entry): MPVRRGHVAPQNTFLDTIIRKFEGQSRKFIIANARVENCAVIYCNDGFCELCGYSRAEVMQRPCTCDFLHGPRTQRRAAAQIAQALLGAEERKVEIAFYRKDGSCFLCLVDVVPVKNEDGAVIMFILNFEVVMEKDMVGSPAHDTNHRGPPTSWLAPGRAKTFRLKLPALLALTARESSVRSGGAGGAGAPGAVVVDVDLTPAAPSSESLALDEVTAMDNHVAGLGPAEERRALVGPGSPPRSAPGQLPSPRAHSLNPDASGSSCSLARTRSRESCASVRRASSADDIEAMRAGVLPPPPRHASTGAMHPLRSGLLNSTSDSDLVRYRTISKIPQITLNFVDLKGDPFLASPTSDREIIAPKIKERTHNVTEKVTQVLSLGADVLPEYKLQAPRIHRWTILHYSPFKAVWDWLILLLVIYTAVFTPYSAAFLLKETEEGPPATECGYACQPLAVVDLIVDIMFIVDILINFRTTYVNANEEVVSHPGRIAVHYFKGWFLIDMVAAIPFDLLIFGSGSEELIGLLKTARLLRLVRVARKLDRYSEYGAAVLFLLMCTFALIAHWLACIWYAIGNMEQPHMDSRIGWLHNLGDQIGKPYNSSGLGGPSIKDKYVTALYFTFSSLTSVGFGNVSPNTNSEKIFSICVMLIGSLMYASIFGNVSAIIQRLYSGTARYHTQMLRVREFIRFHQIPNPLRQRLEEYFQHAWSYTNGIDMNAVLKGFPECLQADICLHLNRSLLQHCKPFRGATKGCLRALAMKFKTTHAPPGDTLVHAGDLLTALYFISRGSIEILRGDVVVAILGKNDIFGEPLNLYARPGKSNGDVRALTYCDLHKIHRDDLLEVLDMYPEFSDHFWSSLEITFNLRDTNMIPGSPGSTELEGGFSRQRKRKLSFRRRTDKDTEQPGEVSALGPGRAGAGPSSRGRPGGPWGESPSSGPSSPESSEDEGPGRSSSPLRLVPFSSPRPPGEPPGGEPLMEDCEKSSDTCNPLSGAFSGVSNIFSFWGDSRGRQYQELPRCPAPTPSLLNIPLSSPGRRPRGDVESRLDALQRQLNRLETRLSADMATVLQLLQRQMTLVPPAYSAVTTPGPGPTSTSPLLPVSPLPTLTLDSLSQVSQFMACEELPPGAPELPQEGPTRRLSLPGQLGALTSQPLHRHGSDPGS
T1 sequence (Q9Y5N1 whole entry): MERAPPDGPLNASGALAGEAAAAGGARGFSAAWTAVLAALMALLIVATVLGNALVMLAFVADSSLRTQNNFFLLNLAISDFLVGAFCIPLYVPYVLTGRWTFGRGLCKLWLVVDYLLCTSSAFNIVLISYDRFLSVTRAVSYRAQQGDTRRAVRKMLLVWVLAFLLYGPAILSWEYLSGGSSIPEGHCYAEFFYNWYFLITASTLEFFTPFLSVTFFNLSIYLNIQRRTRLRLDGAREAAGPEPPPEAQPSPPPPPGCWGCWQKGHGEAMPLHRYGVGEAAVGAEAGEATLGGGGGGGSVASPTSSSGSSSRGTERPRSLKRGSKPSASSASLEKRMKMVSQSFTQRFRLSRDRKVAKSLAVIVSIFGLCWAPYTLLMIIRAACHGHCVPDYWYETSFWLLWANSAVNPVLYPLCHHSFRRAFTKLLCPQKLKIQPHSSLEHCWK
Sequence of Histamine H3 receptor (Rattus norvegicus, UniProt Q9QYN8) (Q9QYN8 whole entry): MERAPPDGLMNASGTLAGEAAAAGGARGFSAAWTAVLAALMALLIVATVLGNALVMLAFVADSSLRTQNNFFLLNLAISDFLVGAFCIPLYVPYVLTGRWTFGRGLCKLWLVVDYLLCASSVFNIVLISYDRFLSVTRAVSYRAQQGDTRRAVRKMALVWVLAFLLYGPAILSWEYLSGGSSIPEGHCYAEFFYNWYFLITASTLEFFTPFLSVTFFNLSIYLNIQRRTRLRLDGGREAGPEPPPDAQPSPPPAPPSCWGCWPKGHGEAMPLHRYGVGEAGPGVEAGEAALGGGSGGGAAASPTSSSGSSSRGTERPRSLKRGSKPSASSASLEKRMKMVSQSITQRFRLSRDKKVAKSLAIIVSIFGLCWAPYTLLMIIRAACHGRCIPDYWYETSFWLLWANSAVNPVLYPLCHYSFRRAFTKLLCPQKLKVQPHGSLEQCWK
T2 sequence (Q12809 whole entry): as the sequence (Q12809 whole entry) above

In general, Ki refers to the equilibrium dissociation constant of an inhibitor or competing ligand from its target. `CN1CCC[C@H]2[C@@H]3CC[C@H]4C[C@@H](OC(=O)CCN5CCCC5)CC[C@]4(C)[C@H]3CC[C@@]21C` came in with an inhibition constant (Ki) in series [1] of 10.6 nM. This molecule showed an Activity in series [2] of 44%.

Broadly, the inhibition is the relative decrease from the control value, in per cent. Read a low inhibition as a response near the control. `CC(=O)N[C@]12CCC(=O)N[C@@]1(C)CC[C@@H]1c3ccc(OCCCN4CCC[C@H]4C)cc3CC[C@H]12` gave an inhibition at 1 µM in series [3] of 3%. The figures for the Ki in series [4] and in series [1] were 14.5 nM and 15.1 nM, respectively. The same molecule displayed an inhibition at 3 µM in series [5] of 8%.

In the case of `C[C@@H]1CCCN1CCCOc1ccc2c(c1)CC[C@@H]1[C@@H]2CC[C@@]2(C)[C@H]1CCCN2C(=O)C(C)(C)C`, the values for the Ki in series [4], in series [1] and in series [6] were 55.2 nM, 7.8 nM and 816 nM, respectively.

What is called ED50 is the dose at which the effect has come halfway, by size or by number of responders. As usually defined, the IC50 is the concentration needed to halve the response being measured. Consider `C[C@@H]1CCCN1CCCOc1ccc2c(c1)CC[C@@H]1[C@@H]2CC[C@@]2(C)[C@@H]1CCC(=O)N2C`, for which the ED50 in [7] is 0.23 mg/kg. For the same molecule, inhibition in [8] was half-maximal at 9600 nM (IC50).

`C[C@@H]1CCCN1CCCOc1ccc2c(c1)CC[C@@H]1[C@@H]2CC[C@@]2(C)[C@H]1CCCN2C(=O)C1CCOC1` (some centres not stated): the Ki in series [4] was found to be 96 nM.

For the molecule `C[C@@H]1CC(=O)N[C@@]2(C)CC[C@@H]3c4ccc(OCCCN5CCC[C@H]5C)cc4CC[C@H]3[C@H]12`, in series [7], the median effective dose (ED50) is 1.3 mg/kg. Moreover, the values for the Ki in [4], in series [1] and in series [6] were 24.8 nM, 2.2 nM and 2500 nM, respectively. Further, the IC50 in series [8] came out at 11000 nM.

One may read the bioavailability as the share of a dose that reaches the circulation, judged against a reference dose that is usually intravenous. A high value points to good availability. For `C[C@@H]1CCCN1CCCOc1ccc2c(c1)CC[C@@H]1[C@@H]2CC[C@@]2(C)[C@H]1CCC(=O)N2C`, in [7], the median effective dose (ED50) is 0.4 mg/kg. Besides, the minimal effective dose in series [9] was found to be 0.1 mg/kg; in series [11], 0.3 mg/kg. Moreover, the Kp at 49 h in series [10] is 1.4. Also, inhibition in series [8] was half-maximal at 9900 nM (IC50). The bioavailability in series [12] worked out at 63.7%.

`CN1CCC[C@H]2[C@@H]3CCc4cc(OCCCN5CCCC5)ccc4[C@H]3CC[C@@]21C`: the Ki in [4] was determined as 5.1 nM; in [1], 0.9 nM. In [2], this molecule gave an Activity of 69%.

Take `C[C@@H]1CCCN1CCCOc1ccc2c(c1)CC[C@H]1C3=CCC(=O)N(C)[C@@]3(C)CC[C@H]21`: the ED50 in series [7] amounted to 0.22 mg/kg. In addition, the values for the Ki in series [4], in [1] and in [6] were 5.7 nM, 1.1 nM and 1500 nM, respectively. In series [8], this molecule gave an IC50 of 8600 nM.

In turn, `C[C@@H]1CCCN1CCCOc1ccc2c(c1)CC[C@@H]1[C@@H]2CC[C@]2(C)NC(=O)CC[C@H]12` gave an IC50 in [8] of 22000 nM.

In the case of `C[C@@H]1CCCN1CCCOc1ccc2c(c1)CC[C@H]1C3=CCC(=O)N[C@@]3(C)CC[C@H]21`, in series [7], the ED50 is 0.12 mg/kg. In series [9], the minimal effective dose was determined as 0.3 mg/kg. Further, the Kp at 49 h in [10] came to 0.6. For the same molecule, the Ki in [4] worked out at 6.8 nM. Also, half-maximal inhibition in series [8] (IC50) required 18700 nM. In addition, the bioavailability in series [12] is 63.8%.

Regarding `CCC(=O)N1CCC[C@H]2[C@@H]3CCc4cc(OCCCN5CCC[C@H]5C)ccc4[C@H]3CC[C@@]21C`, the Ki amounted to 37.3 nM in series [4], 8 nM in [1] and 1700 nM in series [6]. Besides, the IC50 in series [8] was over 10000 nM.

In series [1], `C[C@@H]1CCCN1CCCOc1ccc2c(c1)CC[C@@H]1[C@@H]2CC[C@@]2(C)[C@H]1CCCN2C(=O)c1ccccc1` displayed a Ki of 11.6 nM.

As for `C[C@@H]1CCCN1CCCOc1ccc2c(c1)CC[C@H]1[C@@H]3[C@@H]4C[C@@H]4C(=O)N(C)[C@@]3(C)CC[C@H]21`, the ED50 in series [7] came to 1.4 mg/kg. For the same molecule, the values for the Ki in series [4] and in series [1] were 3.3 nM and 1 nM, respectively. In addition, half-maximal inhibition in series [8] (IC50) was put at 7700 nM.

For the molecule `C[C@@H]1CCCN1CCCOc1ccc2c(c1)CC[C@H]1[C@@H]3[C@H](C#N)CC(=O)N(C)[C@@]3(C)CC[C@H]21`, the ED50 in [7] is 0.78 mg/kg. In addition, the Ki in [4] came out at 7.2 nM; in [1], 2 nM. This molecule also yielded an IC50 in [8] of 10400 nM.

Consider `CC(=O)N1CCC[C@H]2[C@@H]3CCc4cc(OCCCN5CCC[C@H]5C)ccc4[C@H]3CC[C@@]21C`, for which the Ki in series [4] turned out to be 15.9 nM; in series [1], 6.9 nM. Moreover, the IC50 in [8] was found to be 10000 nM.

For the molecule `C[C@]12CC[C@@H]3c4ccc(OCCCN5CCCC5)cc4CC[C@H]3[C@@H]1CCCN2C=O`, the inhibition constant Ki in series [4] was found to be 21.8 nM; in [1], 1.8 nM. This molecule showed an IC50 in [8] of 6000 nM. This molecule also had an Activity in series [2] of 13%.

On to `C[C@@H]1CCCN1CCCOc1ccc2c(c1)CC[C@H]1[C@H]3[C@@H]4C[C@@H]4C(=O)N[C@@]3(C)CC[C@H]21`, for which the ED50 in series [7] was 0.33 mg/kg. The Ki in [4] was determined as 9.9 nM; in [1] it was 2.4 nM; in series [6], 3600 nM. This molecule registered an IC50 in series [8] of 5000 nM.

Take `C[C@]12CC[C@@H]3c4ccc(OCCCN5CCCC5)cc4CC[C@H]3[C@@H]1CCCN2CCO`: the values for the Ki in series [4] and in series [1] were 10.5 nM and 3.4 nM, respectively.

`C[C@@H]1CCCN1CCCOc1ccc2c(c1)CC[C@@H]1[C@@H]2CC[C@@]2(C)NC(=O)CC[C@@H]12` yielded an IC50 in [8] of over 30000 nM.

For the molecule `C[C@@H]1C[C@@H]2[C@@H]3CCc4cc(OCCCN5CCC[C@H]5C)ccc4[C@H]3CC[C@]2(C)N(C)C1=O`, the Ki turned out to be 3.8 nM in [4] and 1.5 nM in series [1]. Further, the IC50 in [8] turned out to be 2700 nM.

For the molecule `C[C@@H]1CCCN1CCCOc1ccc2c(c1)CC[C@H]1[C@@H]3[C@@H]4C[C@@H]4C(=O)N[C@@]3(C)CC[C@H]21`, the ED50 in series [7] was 1.5 mg/kg. Further, the Ki stood at 9.4 nM in series [4] and 4.9 nM in [1]. This molecule gave a half-inhibitory concentration (IC50) in series [8] of 11700 nM.

As for `C[C@@H]1CCCN1CCCOc1ccc2c(c1)CC[C@@H]1[C@@H]2CC[C@]2(C)NC(=O)CC[C@@H]12`, the midpoint of inhibition in [8], the IC50, lay at 3700 nM.

On to `C[C@@H]1CCCN1CCCOc1ccc2c(c1)CC[C@H]1[C@@H]3[C@H](C#N)CC(=O)N[C@@]3(C)CC[C@H]21`, for which, in [7], the ED50 came out at 3.6 mg/kg. Moreover, the Ki in series [4] was determined as 20.5 nM; in series [1], 8.6 nM; in [6] it was 2400 nM. Moreover, 24000 nM corresponded to half-maximal inhibition in series [8] (IC50).

With `C[C@@H]1CC(=O)N(C)[C@@]2(C)CC[C@@H]3c4ccc(OCCCN5CCC[C@H]5C)cc4CC[C@H]3[C@H]12`, the ED50 in series [7] was 0.48 mg/kg. The Ki was determined as 2.2 nM in [4] and 2.4 nM in [1]. In series [8], this molecule displayed an IC50 of 8800 nM.

Molecule `NC(=O)c1ccc([C@@H]2C[C@H]2C(=O)N2CCN(C3CCC3)CC2)cc1` showed a Ki in [13] of 0.501 nM.

Turning to `C[C@]12CC[C@@H]3c4ccc(OCCCN5CCCC5)cc4CC[C@H]3[C@@H]1CCCN2`, the inhibitory constant (Ki) in [4] was 30.2 nM; in series [1], 1.5 nM. The same molecule gave an Activity in series [2] of 36%.

Regarding `C[C@@H]1C[C@H]2[C@@H]3CCc4cc(OCCCN5CCC[C@H]5C)ccc4[C@H]3CC[C@]2(C)NC1=O`, the ED50 in series [7] was determined as 0.86 mg/kg. Further, the Ki was 9 nM in [4], 4.1 nM in series [1] and 2700 nM in series [6]. The IC50 in series [8] worked out at 14500 nM.
